Our source for the EC50 values is US20250136606A1, “MODULATORS OF TRPML, THEIR COMPOSITIONS AND METHODS OF USE” (Caraway Therapeutics, Inc., priority 2021, published 2025).

In general, EC50 refers to the concentration needed to bring the measured effect to its halfway point.

Holding throughout (assay type): cell-based
Holding throughout (conditions): fluorescent calcium assay

One assay has as its target TRPML1 (Homo sapiens, UniProt Q9GZU1). Briefly: Fluorescent TRPML1 assay (Fluo4-AM calcium fluorescence in doxycycline-induced HEK-293 Trex cells). In outline:
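First, expression of surface-targeted mutant human TRPML1 is induced in HEK-293 Trex cells with 0.5 ug/mL doxycycline the day before. Next, cells take up 1 micromolar Fluo4-AM in Ringer's with 0.1% Pluronic. Finally, they are added to compounds (6 nanomolar–20 micromolar final) in 10 mM calcium Ringer's and fluorescence is read.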

The next assay addresses T1, TRPML2 (Homo sapiens, UniProt Q8IZK6).
T1 construct: expressed in transfected cells
T1 sequence (Q8IZK6 1-566): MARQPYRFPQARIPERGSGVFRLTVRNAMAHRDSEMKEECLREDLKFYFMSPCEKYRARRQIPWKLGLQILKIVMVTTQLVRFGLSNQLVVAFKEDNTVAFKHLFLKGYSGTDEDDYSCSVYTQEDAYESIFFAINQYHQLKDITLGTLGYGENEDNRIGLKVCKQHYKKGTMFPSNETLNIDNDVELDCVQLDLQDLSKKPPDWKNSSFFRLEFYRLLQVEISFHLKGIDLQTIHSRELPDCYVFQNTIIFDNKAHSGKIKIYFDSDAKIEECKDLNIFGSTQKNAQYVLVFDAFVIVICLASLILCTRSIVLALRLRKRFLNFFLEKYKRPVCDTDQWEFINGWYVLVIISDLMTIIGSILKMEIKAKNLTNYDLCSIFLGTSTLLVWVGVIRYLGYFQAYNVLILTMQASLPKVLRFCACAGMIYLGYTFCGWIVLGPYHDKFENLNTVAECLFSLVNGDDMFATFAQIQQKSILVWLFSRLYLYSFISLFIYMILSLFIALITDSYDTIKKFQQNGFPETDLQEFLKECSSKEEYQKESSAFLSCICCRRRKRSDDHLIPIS
Description: Fluorescent TRPML2 assay (performed as for TRPML1, substituting the TRPML2 subtype). In outline: (§1)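 Doxycycline-induced (0.5 ug/mL) HEK-293 Trex cells stably expressing surface-directed mutant channel were loaded with 1 micromolar Fluo4-AM, resuspended in Ringer's with 10 mM calcium and added to compound plates. Fluorescence (ex 480, em 540 nm) gave percent activity versus on-plate controls; EC50 by non-linear regression.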

A further assay addresses T2, TRPML3 (Homo sapiens, UniProt Q8TDD5).
T2 construct: expressed in transfected cells
T2 sequence (Q8TDD5 1-553): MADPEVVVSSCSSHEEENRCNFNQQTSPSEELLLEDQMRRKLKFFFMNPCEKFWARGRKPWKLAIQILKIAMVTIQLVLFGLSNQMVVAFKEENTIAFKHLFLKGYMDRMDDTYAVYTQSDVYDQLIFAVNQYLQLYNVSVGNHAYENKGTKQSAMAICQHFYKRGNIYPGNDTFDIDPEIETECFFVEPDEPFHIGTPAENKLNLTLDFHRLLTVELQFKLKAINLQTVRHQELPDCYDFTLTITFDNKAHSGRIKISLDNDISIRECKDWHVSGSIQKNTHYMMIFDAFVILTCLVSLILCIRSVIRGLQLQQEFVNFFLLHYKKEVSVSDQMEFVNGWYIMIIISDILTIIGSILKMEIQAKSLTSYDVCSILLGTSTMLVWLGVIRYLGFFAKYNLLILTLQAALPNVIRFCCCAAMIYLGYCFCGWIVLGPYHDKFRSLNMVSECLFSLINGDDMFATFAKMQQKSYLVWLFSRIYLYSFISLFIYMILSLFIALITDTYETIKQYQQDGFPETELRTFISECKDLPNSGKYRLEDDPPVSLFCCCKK
Description: Fluorescent TRPML3 assay (performed as for TRPML1, substituting the TRPML3 subtype). In a few lines:
as §1

Each structure is given as a SMILES string.

Sequence of TRPML1 (Q9GZU1 whole entry L15A/L16A/L577A/L578A, form open): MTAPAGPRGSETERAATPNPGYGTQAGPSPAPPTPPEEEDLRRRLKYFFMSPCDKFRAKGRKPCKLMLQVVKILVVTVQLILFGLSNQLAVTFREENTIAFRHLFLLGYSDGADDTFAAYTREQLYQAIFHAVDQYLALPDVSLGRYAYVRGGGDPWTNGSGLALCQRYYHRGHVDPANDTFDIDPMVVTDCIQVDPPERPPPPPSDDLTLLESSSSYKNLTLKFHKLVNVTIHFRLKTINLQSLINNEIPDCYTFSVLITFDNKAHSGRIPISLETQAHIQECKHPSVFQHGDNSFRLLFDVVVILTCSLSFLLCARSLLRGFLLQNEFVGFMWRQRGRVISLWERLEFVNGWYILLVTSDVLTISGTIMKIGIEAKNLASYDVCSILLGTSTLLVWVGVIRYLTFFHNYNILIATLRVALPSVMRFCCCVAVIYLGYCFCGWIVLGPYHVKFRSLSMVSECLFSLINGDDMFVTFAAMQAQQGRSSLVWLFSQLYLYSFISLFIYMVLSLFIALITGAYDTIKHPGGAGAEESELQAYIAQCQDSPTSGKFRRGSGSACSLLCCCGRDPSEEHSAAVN

Take `C[C@H]1CN(C(=O)OC(C)(C)C)CCN1c1ncnc2c1c(C1CC1)cn2-c1cc(C#N)ncn1` [Compound 431, tert-butyl (S)-4-(7-(6-cyanopyrimidin-4-yl)-5-cyclopropyl-7H-pyrrolo[2,3-d]pyrimidin-4-yl)-3-methylpiperazine-1-carboxylate]: the figures for the EC50 on TRPML1, at TRPML2 and on TRPML3 were 100 to 500 nM, 500 to 2000 nM and under 100 nM, respectively.
In the case of `C[C@H]1CN(C(=O)OC(C)(C)C)CCN1c1ncnc2c1c(C1CC1)cn2-c1nccc(C#N)n1` [Compound 432, tert-Butyl (S)-4-(7-(4-cyanopyrimidin-2-yl)-5-cyclopropyl-7H-pyrrolo[2,3-d]pyrimidin-4-yl)-3-methylpiperazine-1-carboxylate], the 50% effective concentration (EC50) on TRPML1 was 100 to 500 nM; at TRPML2 it was 500 to 2000 nM; at TRPML3, under 100 nM.
The corresponding values for `C[C@H]1CN(C(=O)OC(C)(C)C)CCN1c1ncnc2c1c(-c1ccccc1F)cn2-c1nc(C#N)cs1` [Compound 433, tert-butyl (S)-4-(7-(4-cyanothiazol-2-yl)-5-(2-fluorophenyl)-7H-pyrrolo[2,3-d]pyrimidin-4-yl)-3-methylpiperazine-1-carboxylate] are 100 to 500 nM, 500 to 2000 nM and 100 to 500 nM.
For `C[C@@H]1CN(c2ncnc3c2c(-c2ccccc2F)cn3-c2ncc(C#N)s2)[C@@H](C)CN1C(=O)OC(C)(C)C` [Compound 434, tert-butyl (2R,5S)-4-(7-(5-cyanothiazol-2-yl)-5-(2-fluorophenyl)-7H-pyrrolo[2,3-d]pyrimidin-4-yl)-2,5-dimethylpiperazine-1-carboxylate], the half-maximal effective concentration (EC50) on TRPML1, on TRPML2 and at TRPML3 was under 100 nM each time.
Take `CC(C)(C)OC(=O)N1CCN(c2ncnc3c2c(-c2ccccc2F)cn3-c2cc(C#N)ccn2)C2(CC2)C1` [Compound 435, tert-butyl 4-(7-(4-cyanopyridin-2-yl)-5-(2-fluorophenyl)-7H-pyrrolo[2,3-d]pyrimidin-4-yl)-4,7-diazaspiro[2.5]octane-7-carboxylate]: the EC50 on TRPML1, on TRPML2 and on TRPML3 was under 100 nM throughout.
As for `C[C@H]1CN(C(=O)OC(C)(C)C(F)(F)F)CCN1c1ncnc2c1c(C1CCC1)cn2-c1cc(C#N)ccn1` [Compound 436, 1,1,1-trifluoro-2-methylpropan-2-yl(S)-4-(7-(4-cyanopyridin-2-yl)-5-cyclobutyl-7H-pyrrolo[2,3-d]pyrimidin-4-yl)-3-methylpiperazine-1-carboxylate], the 50% effective concentration (EC50) on TRPML1 is under 100 nM; on TRPML2, 100 to 500 nM; on TRPML3 it was under 100 nM.
For `C[C@H]1CN(C(=O)OC(C)(C)C)CCN1c1ncnc2c1c(-c1ccccc1F)cn2-c1cc(C#N)ncn1` [Compound 437, tert-butyl (S)-4-(7-(6-cyanopyrimidin-4-yl)-5-(2-fluorophenyl)-7H-pyrrolo[2,3-d]pyrimidin-4-yl)-3-methylpiperazine-1-carboxylate], the concentration giving a half-maximal response (EC50) on TRPML1, at TRPML2 and at TRPML3 was under 100 nM in each case.
Take `C[C@H]1CN(C(=O)OC(C)(C)C)CCN1c1ncnc2c1c(-c1ccccc1F)cn2-c1nccc(C#N)n1` [Compound 438, tert-butyl (S)-4-(7-(4-cyanopyrimidin-2-yl)-5-(2-fluorophenyl)-7H-pyrrolo[2,3-d]pyrimidin-4-yl)-3-methylpiperazine-1-carboxylate]: the half-maximal effective concentration (EC50) at TRPML1 was under 100 nM; on TRPML2 it was 500 to 2000 nM; on TRPML3, under 100 nM.
For `C[C@H]1CN(C(=O)OC(C)(C)C)CCN1c1ncnc2c1c(C1CC1)cn2-c1cc(C#N)cnn1` [Compound 439, tert-butyl (S)-4-(7-(5-cyanopyridazin-3-yl)-5-cyclopropyl-7H-pyrrolo[2,3-d]pyrimidin-4-yl)-3-methylpiperazine-1-carboxylate], the EC50 on TRPML1 was 100 to 500 nM; at TRPML2 it was 500 to 2000 nM; on TRPML3 it was under 100 nM.
Consider `C[C@H]1CN(C(=O)OC(C)(C)C)CCN1c1ncnc2c1c(C1CC1)cn2-c1ncc(C#N)[nH]1` [Compound 440, tert-butyl (S)-4-(7-(5-cyano-1H-imidazol-2-yl)-5-cyclopropyl-7H-pyrrolo[2,3-d]pyrimidin-4-yl)-3-methylpiperazine-1-carboxylate], for which the EC50 on TRPML1 is over 2000 nM; on TRPML2 it was over 2000 nM; on TRPML3 it was 500 to 2000 nM.
With `CCN(CC)c1cn(-c2cc(C#N)ccn2)c2ncnc(N3CCN(C(=O)OC(C)(C)C)CC3)c12` [Compound 441, tert-butyl 4-(7-(4-cyanopyridin-2-yl)-5-(diethylamino)-7H-pyrrolo[2,3-d]pyrimidin-4-yl)piperazine-1-carboxylate], the EC50 is 100 to 500 nM on TRPML1, over 2000 nM at TRPML2 and 100 to 500 nM at TRPML3.
Consider `C[C@H]1CN(C(=O)OC(C)(C)C)CCN1c1ncnc2c1c(N(C)C1CC1)cn2-c1cc(C#N)ccn1` [Compound 442, tert-butyl (S)-4-(7-(4-cyanopyridin-2-yl)-5-(cyclopropyl(methyl)amino)-7H-pyrrolo[2,3-d]pyrimidin-4-yl)-3-methylpiperazine-1-carboxylate], for which the half-maximal effective concentration (EC50) at TRPML1 was under 100 nM; on TRPML2 it was 500 to 2000 nM; on TRPML3 it was under 100 nM.
Regarding `CC(C)N(C)c1cn(-c2cc(C#N)ccn2)c2ncnc(N3CCN(C(=O)OC(C)(C)C)C[C@@H]3C)c12` [Compound 443, tert-butyl (S)-4-(7-(4-cyanopyridin-2-yl)-5-(isopropyl(methyl)amino)-7H-pyrrolo[2,3-d]pyrimidin-4-yl)-3-methylpiperazine-1-carboxylate], the EC50 at TRPML1, on TRPML2 and at TRPML3 was under 100 nM throughout.
On to `Cc1cc(-n2cc(-c3ccccc3F)c3c(N4CCN(C(=O)OC(C)(C)C)C[C@@H]4C)ncnc32)cc(C#N)n1` [Compound 444, tert-butyl (S)-4-(7-(2-cyano-6-methylpyridin-4-yl)-5-(2-fluorophenyl)-7H-pyrrolo[2,3-d]pyrimidin-4-yl)-3-methylpiperazine-1-carboxylate], for which the EC50 was under 100 nM at TRPML1, 100 to 500 nM at TRPML2 and under 100 nM on TRPML3.
On to `C[C@H]1CN(C(=O)OC(C)(C)C)CCN1c1ncnc2c1c(C1CC1)cn2-c1cc(C#N)n(C)c1` [Compound 445, tert-butyl (S)-4-(7-(5-cyano-1-methyl-1H-pyrrol-3-yl)-5-cyclopropyl-7H-pyrrolo[2,3-d]pyrimidin-4-yl)-3-methylpiperazine-1-carboxylate], for which the EC50 at TRPML1 is under 100 nM; at TRPML2, 100 to 500 nM; on TRPML3, under 100 nM.
Take `C[C@H]1CN(C(=O)OC(C)(C)C)CCN1c1nccc2c1c(C1CC1)cn2-c1cc(C#N)ccn1` [Compound 446, tert-butyl (S)-4-(1-(4-cyanopyridin-2-yl)-3-cyclopropyl-1H-pyrrolo[3,2-c]pyridin-4-yl)-3-methylpiperazine-1-carboxylate]: the results for the 50% effective concentration (EC50) on TRPML1, at TRPML2 and on TRPML3 were under 100 nM, 100 to 500 nM and under 100 nM, respectively.
As to `C[C@H]1CN(C(=O)OC(C)(C)C)CCN1c1ncnc2c1c(-c1ccccc1F)cn2-c1cc(C#N)cnn1` [Compound 447, tert-butyl (S)-4-(7-(5-cyanopyridazin-3-yl)-5-(2-fluorophenyl)-7H-pyrrolo[2,3-d]pyrimidin-4-yl)-3-methylpiperazine-1-carboxylate], the EC50 at TRPML1, at TRPML2 and on TRPML3 was under 100 nM each time.
With `C[C@H]1CN(C(=O)OC(C)(C)C)CCN1c1ncnc2c1c(-c1ccccc1F)cn2-c1cnnc(C#N)c1` [Compound 448, tert-butyl (S)-4-(7-(6-cyanopyridazin-4-yl)-5-(2-fluorophenyl)-7H-pyrrolo[2,3-d]pyrimidin-4-yl)-3-methylpiperazine-1-carboxylate], the results for the half-maximal effective concentration (EC50) at TRPML1, at TRPML2 and at TRPML3 were under 100 nM, 100 to 500 nM and under 100 nM, respectively.
